In patent US11951100B2, “Formulations of RBP4 inhibitors and methods of use” (Belite Bio, LLC, priority 2019, dated 2024):
≈ marks a conversion by molar mass, not a printed value.

Assays:
[1] = Log D7.4, shake-flask partitioning; type: physicochemical; details: pH 7.4, shake-flask (Pion, Inc.)
Experimental: Several biopharmaceutically relevant parameters of the API (Compound 1) were obtained for the API. […] Based on these two biopharmaceutical parameters, this compound is possibly a BCS Class II. Solubility enhancement is critical for bioavailability of the API for dosing. Therefore, to overcome the limitation from solubility, several experiments were conducted to assess various solubility enhancement approaches utilized in formulation development

[2] = test system: Abcd4/rdh8 double knockout mice; assay: Abcd4/rdh8 double knockout mouse model of macular degeneration; type: in vivo
Source text: FIG. 2 is a graph of bisretinoid A2E (pmol in the eye) and RBP4 (serum) levels for ABCA4−/−RDH8−/− mice either untreated, treated with vehicle, or treated with Compound 1.
FIG. 3 is a graph of outer nuclear layer (ONL) thickness (μm) as a function of distance (μm) from the optic nerve (ONH). ONL is the cell layer consisting of photoreceptor cell bodies (rods and cones). Dry AMD or STGD is often associated with thinning of the ONL and the loss of photoreceptor cells, indicating macular degeneration.
Abcd4/rdh8 double knockout mice were either untreated or treated with Compound 1. Wild type C57BL/6J mice were also used as a normal control. […] (FIG. 2). Diseases such as dry AMD or Stargardt are associated with thinning of the outer nuclear layer (ONL) of the eye and the loss of photoreceptor cells, indicating macular degeneration.

[3] = Solvent shift assay in FaSSIF; type: physicochemical
Experimental: A solvent shift assay was performed in order to assess the effect of polymer excipients in improving supersaturation and sustainment in biorelevant media. Compound 1 was dissolved in DMSO to generate concentrated dissolved stock solution at 25 mg/mL. Stock API solution was then added to Fasted State Simulated Intestinal Fluid (FaSSIF) solution or FaSSIF solution containing predissolved polymer excipients to final concentration of compound 1 at 0.5 mg/mL. Ratios of Compound 1:polymer excipient in the final solution were either 20:80 or 40:60 (w/w). Samples were analyzed by HPLC to assess dynamic solubility of Compound 1 at various time points over a one hour period.

[4] = Saturated solubility at 80° C., visually estimated; type: physicochemical; details: Capmul MCM
[5] = Chemical stability at elevated temperatures (DSC heating, HPLC); type: physicochemical; details: Form C batch heated in DSC to a variety of temperatures and holding times
Experimental: The API was heated to a variety of temperatures with several holding time periods in DSC. The resulted solids in DSC pan were extracted with DMSO. The solutions of API were prepared and injected into HPLC for determination of assay and related substances. […] One of possible solution to the API degradation in hot-melt extrusion might be the addition of a plasticizer which may lower the process temperature for maintaining chemical integrity of the API.

[6] = Estimated solubility by solvent aliquot addition, visual inspection; type: physicochemical; details: thermodynamic from solid
Experimental: Solubilities of Compound 1 in a few solvents were estimated. The experiments were carried out by adding the test solvent in aliquots to weighed portions of solid. Whether dissolution had occurred was judged by visual inspection after addition of each solvent aliquot. Solubility numbers were calculated by dividing the total amount of solvent used to dissolve the sample by the weight of the sample. The actual solubilities may be greater than the numbers calculated because of the use of solvent aliquots that were too large or because of slow dissolution rates. […] The solubility number is expressed as “greater than or equal to” if dissolution occurred on addition of the first solvent aliquot.

[7] = treated vs untreated Abcd4/rdh8 double knockout mice

## CC(=O)N1CCc2c(C(=O)N3CCC(c4ccc(F)c(F)c4C(F)(F)F)CC3)n[nH]c2C1 [Compound 1, 1-(3-(4-(3,4-difluoro-2-(trifluoromethyl)phenyl)piperidine-1-carbonyl)-1,4,5,7-tetrahydro-6H-pyrazolo[3,4-c]pyridin-6-yl)ethan-1-one]
[1]
  logD: 3.23
[2]; bisretinoid A2E in the eye, ABCA4−/−RDH8−/− mice treated with Compound 1, p=0.003, unpaired t-test
  reduction in bisretinoid accumulation: 80%
[2]; diseased group treated with Compound 1 vs diseased group
  outer nuclear layer (ONL) thickness: preserved
[2]; [7]
  levels of A2E in the retina: significantly lower
  levels of RBP4 in serum: lower
[3]; 0.5 mg/mL Compound 1 from DMSO stock into FaSSIF, one hour
  Total Drug AUC FaSSIF: 13100 min*μgA/mL
[3]; FaSSIF, 60 min
  Total Drug C60: 91.3 μgA/mL
[4]; 80 °C, oil or lipid, thermodynamic from solid
  solubility: 16000 µg/mL (≈ 35.1 mM)
[4]; listed as API
  saturated solubility: 20000 µg/mL
[5]
  chemical stability at elevated temperatures, HPLC related substances: impurity (with RRT=0.8 in HPLC) were present in all prepared samples except the control sample
[6]; 2-propanol, organic solvent or mixture
  solubility: 4000 µg/mL (≈ 8.76 mM)
[6]; acetone, organic solvent or mixture
  solubility: 2000 µg/mL (≈ 4.38 mM)
[6]; acetonitrile, organic solvent or mixture
  solubility: < 1000 µg/mL
[6]; dichloromethane, organic solvent or mixture
  solubility: 2000 µg/mL (≈ 4.38 mM)
[6]; dimethylformamide, organic solvent or mixture
  solubility: 15000 µg/mL (≈ 32.9 mM)
[6]; ethanol (absolute), organic solvent or mixture
  solubility: 6000 µg/mL (≈ 13.1 mM)
[6]; ethyl acetate, organic solvent or mixture
  solubility: 1000 µg/mL (≈ 2.19 mM)
[6]; ethyl ether, organic solvent or mixture
  solubility: < 1000 µg/mL
[6]; methanol, organic solvent or mixture
  solubility: 6000 µg/mL (≈ 13.1 mM)
[6]; tetrahydrofuran, organic solvent or mixture
  solubility: 6000 µg/mL (≈ 13.1 mM)
[6]; water
  solubility: < 1000 µg/mL
